Data on seven compounds can be found in US11492385B2, “Long-acting co-agonists of the glucagon and GLP-1 receptors” (Merck Sharp & Dohme Corp., priority 2015, dated 2022).

Data set [1] can be described thus: Duration of action in DIO mice: body weight after a single sc dose. It counts as in vivo. To be noted: single sc dose at day zero, compared to liraglutide and semaglutide (FIG. 1A). The protocol: (§1) In this example, the duration of action of several of the peptides or co-agonist peptides was evaluated in diet-induced obese (DIO) mice. The duration of action of the peptides were compared to the duration of action of Semaglutide (sema) and Liraglutide (lira). The peptides tested were SEQ ID NOs: 2, 19, 28, 29, and 33 (Seq 2, Seq 19, Seq 28, Seq 29, and Seq 33, respectively).

Data set [2] can be described thus: Duration of action in DIO mice: food intake after a single sc dose. It counts as in vivo. To be noted: single sc dose at day zero, compared to liraglutide and semaglutide (FIG. 1B). The protocol: as §1
Data set [3] can be described thus: Duration of action in DIO mice: blood glucose after a single sc dose. It counts as in vivo. The note with it: single sc dose at day zero, compared to liraglutide and semaglutide (FIG. 1C). The protocol: as §1
For data set [4] the following is noted: mouse, in vivo, sc.
Protocol: DIO mice were divided into groups of eight mice per group and the initial average body weight, food intake and basal glucose of each group were matched. Each group of mice was subcutaneously (sc) injected with a single dose of peptide or vehicle control. The administered doses varied between 3 and 300 nmol/kg. […] A separate set of mice were treated with same dose of each peptide. Serial blood was taken at 5 hours, 24 hours, 48 hours and 72 hours post sc injection to measure drug exposure.
Data set [5] addresses T1, human GLP1R (Homo sapiens, UniProt P43220).
T1 construct: expressed in transfected cells; kept under Blasticidin and Hygromycin selection
Kind of data set: cAMP activity assay, cells expressing human GLP1R. It counts as cell-based. To be noted: cAMP production, assay buffer with or without 20% human serum (not stated which). The gist of the method: (§2)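 Peptides as 10-point titrations from DMSO tested on cells expressing human GLP1R or GCGR. cAMP measured by luminescent kit after overnight room-temperature incubation in the dark. EC50 from four-parameter logistic fit; native GLP-1 and glucagon as controls.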
A general note: Changes in cAMP serve as a functional read-out for many G protein-coupled receptors.

Data set [6] has as its target T2, human GCGR (Homo sapiens, UniProt P47871).
T2 construct: expressed in transfected cells; kept under Blasticidin and Hygromycin selection
As to the kind of experiment: cAMP activity assay, cells expressing human GCGR. It counts as cell-based. To be noted: for EC50: cAMP production, cells expressing human GCGR, assay buffer with or without 20% human serum (not stated which), read-out: GCGR EC50 human; for hGCGR/hGLP1R (hTone): ratio of human GCGR EC50 to human GLP1R EC50. The gist of the method: as §2

Entries after “also recorded” stand apart in the source; their conditions may differ. Starred links: 1 amine or outer side, 2 acyl side, 3 side chain; linkers in the order of their positions; H or OH if unused. Non-standard residues stand in square brackets, D forms with d. Residues, ends and D or L forms follow the SMILES beside them. Groups on a side chain read outwards from the residue. No end group written: not given here. *: point of attachment. Phe(4-CH2NH2) = NCc1ccc(C[C@H](N)C(=O)O)cc1; C16 diacid = O=C(O)CCCCCCCCCCCCCCC(=O)*; γGlu = O=C(O)[C@H](CCC(=O)[*:2])N[*:1]; C14 diacid = O=C(O)CCCCCCCCCCCCC(=O)*; Met(O2) = CS(=O)(=O)CC[C@H](N)C(=O)O; αMeF = C[C@](N)(Cc1ccccc1)C(=O)O; αMeD = C[C@](N)(CC(=O)O)C(=O)O; AEEA = NCCOCCOCC(=O)O; Aib = CC(C)(N)C(=O)O

T2 sequence (P47871 26-477): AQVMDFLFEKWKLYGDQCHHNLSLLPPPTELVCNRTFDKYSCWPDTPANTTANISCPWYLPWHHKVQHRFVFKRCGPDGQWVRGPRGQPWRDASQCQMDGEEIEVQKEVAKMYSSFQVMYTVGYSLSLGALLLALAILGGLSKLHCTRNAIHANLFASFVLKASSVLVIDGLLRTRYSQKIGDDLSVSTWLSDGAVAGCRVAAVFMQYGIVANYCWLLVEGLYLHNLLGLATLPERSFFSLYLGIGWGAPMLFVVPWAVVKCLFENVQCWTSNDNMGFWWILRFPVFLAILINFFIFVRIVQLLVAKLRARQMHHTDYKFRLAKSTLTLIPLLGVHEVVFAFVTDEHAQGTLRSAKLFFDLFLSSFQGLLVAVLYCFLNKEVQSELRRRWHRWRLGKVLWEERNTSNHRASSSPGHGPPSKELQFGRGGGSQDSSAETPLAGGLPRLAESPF
T1 sequence (P43220 24-463): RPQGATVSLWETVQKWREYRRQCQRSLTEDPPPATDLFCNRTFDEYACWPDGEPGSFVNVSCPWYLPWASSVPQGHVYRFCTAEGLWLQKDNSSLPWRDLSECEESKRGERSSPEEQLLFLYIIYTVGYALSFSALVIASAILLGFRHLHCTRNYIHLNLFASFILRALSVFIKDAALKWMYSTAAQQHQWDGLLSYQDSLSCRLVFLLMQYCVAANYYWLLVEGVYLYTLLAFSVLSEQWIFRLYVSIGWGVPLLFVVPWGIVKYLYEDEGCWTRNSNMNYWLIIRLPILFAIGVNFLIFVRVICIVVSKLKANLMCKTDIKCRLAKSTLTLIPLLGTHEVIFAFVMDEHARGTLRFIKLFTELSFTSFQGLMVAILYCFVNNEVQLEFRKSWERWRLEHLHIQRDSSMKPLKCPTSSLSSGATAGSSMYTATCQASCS

“HsQGTFTSDYSKYLDARAAK( ? -γE-C16—OH)DFVQWLLDT—NH2 (H[dS]QGTFTSDYSKYLDARAAK([AEEA-AEEA-γGlu-C16 diacid])DFVQWLLDT-NH2; N-terminus assumed; SMILES CC(C)C[C@H](NC(=O)[C@H](Cc1ccc(O)cc1)NC(=O)[C@H](CCCCN)NC(=O)[C@H](CO)NC(=O)[C@H](Cc1ccc(O)cc1)NC(=O)[C@H](CC(=O)O)NC(=O)[C@H](CO)NC(=O)[C@@H](NC(=O)[C@H](Cc1ccccc1)NC(=O)[C@@H](NC(=O)CNC(=O)[C@H](CCC(N)=O)NC(=O)[C@@H](CO)NC(=O)[C@@H](N)Cc1c[nH]cn1)[C@@H](C)O)[C@@H](C)O)C(=O)N[C@@H](CC(=O)O)C(=O)N[C@@H](C)C(=O)N[C@@H](CCCNC(=N)N)C(=O)N[C@@H](C)C(=O)N[C@@H](C)C(=O)N[C@@H](CCCCNC(=O)COCCOCCNC(=O)COCCOCCNC(=O)CC[C@H](NC(=O)CCCCCCCCCCCCCCC(=O)O)C(=O)O)C(=O)N[C@@H](CC(=O)O)C(=O)N[C@@H](Cc1ccccc1)C(=O)N[C@H](C(=O)N[C@@H](CCC(N)=O)C(=O)N[C@@H](Cc1c[nH]c2ccccc12)C(=O)N[C@@H](CC(C)C)C(=O)N[C@@H](CC(C)C)C(=O)N[C@@H](CC(=O)O)C(=O)N[C@H](C(N)=O)[C@@H](C)O)C(C)C) [SEQ ID NO: 2]”: the “change in body weight over four days” value in data set [1] is “more pronounced and sustained change in body weight”. Besides, the “change in food intake over four days” value in data set [2] is on record as “more sustained reduction in food intake”.

As to “HXQGTFTSDYSKYLDARAAK( ? -γE-C18—OH)DFVQWL2DT—NH2 (H[Aib]QGTFTSDYSKYLDARAAK([AEEA-AEEA-γGlu-C18‑OH])DFVQWL[Met(O2)]DT-NH2) [SEQ ID NO: 29]”, in data set [1] (listed as Seq 29), the “change in body weight over four days” value is “more pronounced and sustained change in body weight; also recorded: particularly pronounced”. For the same compound, in data set [2] (listed as Seq 29), the “change in food intake over four days” value is “more sustained reduction in food intake; also recorded: particularly evident”. In addition, the “blood glucose lowering effect over four days” value in data set [3] (listed as Seq 29) is listed as “greater reduction in blood glucose”; in data set [3] (listed as Seq29) it was “particularly effective”.

For the compound “HXQGTFTSDpAF( ? -γE-C18—OH)SKYLDARAAQDFVQWL2DT—NH2 (H[Aib]QGTFTSD[Phe(4-CH2NH2)]([AEEA-AEEA-γGlu-C18‑OH])SKYLDARAAQDFVQWL[Met(O2)]DT-NH2) [SEQ ID NO: 28]”, the “change in body weight over four days” value in data set [1] is “more pronounced and sustained change in body weight”. In addition, in data set [2], the “change in food intake over four days” value is recorded as “more sustained reduction in food intake”. The “blood glucose lowering effect over four days” value in data set [3] is reported as “greater reduction in blood glucose”.

Regarding “HXQGTFTSDYSKYLDARAAK( ? -γE-C18—OH)DFVQWL2αMDT—NH2 (H[Aib]QGTFTSDYSKYLDARAAK([AEEA-AEEA-γGlu-C18‑OH])DFVQWL[Met(O2)][αMeD]T-NH2) [SEQ ID NO: 33]”, in data set [1] (listed as Seq 33), the “change in body weight over four days” value is “more pronounced and sustained change in body weight; also recorded: particularly pronounced”. Also, in data set [2] (listed as Seq 33), the “change in food intake over four days” value is reported as “more sustained reduction in food intake; also recorded: particularly evident”. Moreover, the “PK over three days” value in data set [4] is given as “more prolonged PK”. For the same compound, in data set [3] (listed as Seq 33), the “blood glucose lowering effect over four days” value is “greater reduction in blood glucose; also recorded: particularly effective”.

Broadly, the EC50 is the concentration giving half of the maximal effect. Turning to `CC(C)C[C@H](NC(=O)[C@H](Cc1ccc(O)cc1)NC(=O)[C@H](CCCCN)NC(=O)[C@H](CO)NC(=O)[C@H](Cc1ccc(O)cc1)NC(=O)[C@H](CC(=O)O)NC(=O)[C@H](CO)NC(=O)[C@@H](NC(=O)[C@H](Cc1ccccc1)NC(=O)[C@@H](NC(=O)CNC(=O)[C@H](CCC(N)=O)NC(=O)C(C)(C)NC(=O)[C@@H](N)Cc1c[nH]cn1)[C@@H](C)O)[C@@H](C)O)C(=O)N[C@@H](CC(=O)O)C(=O)N[C@@H](C)C(=O)N[C@@H](CCCNC(=N)N)C(=O)N[C@@H](C)C(=O)N[C@@H](C)C(=O)N[C@@H](CCCCNC(=O)COCCOCCNC(=O)COCCOCCNC(=O)CC[C@H](NC(=O)CCCCCCCCCCCCCCC(=O)O)C(=O)O)C(=O)N[C@@H](CC(=O)O)C(=O)N[C@@](C)(Cc1ccccc1)C(=O)N[C@H](C(=O)N[C@@H](CCC(N)=O)C(=O)N[C@@H](Cc1c[nH]c2ccccc12)C(=O)N[C@@H](CC(C)C)C(=O)N[C@@H](CCS(C)(=O)=O)C(=O)N[C@@H](CC(=O)O)C(=O)N[C@H](C(N)=O)[C@@H](C)O)C(C)C` [compound 39] (H-H[Aib]QGTFTSDYSKYLDARAAK([AEEA-AEEA-γGlu-C16 diacid])D[αMeF]VQWL[Met(O2)]DT-NH2), the half-maximal effective concentration (EC50) in data set [5] came to 0.11 nM. Also, in data set [6], the EC50 is 0.33 nM and the “hGCGR/hGLP1R (hTone)” value amounted to 2.93.

`CC(C)C[C@H](NC(=O)[C@H](Cc1ccc(O)cc1)NC(=O)[C@H](Cc1ccc(CNC(=O)COCCOCCNC(=O)COCCOCCNC(=O)CC[C@H](NC(=O)CCCCCCCCCCCCCCC(=O)O)C(=O)O)cc1)NC(=O)[C@H](CO)NC(=O)[C@H](Cc1ccc(O)cc1)NC(=O)[C@H](CC(=O)O)NC(=O)[C@H](CO)NC(=O)[C@@H](NC(=O)[C@H](Cc1ccccc1)NC(=O)[C@@H](NC(=O)CNC(=O)[C@H](CCC(N)=O)NC(=O)[C@@H](CO)NC(=O)[C@@H](N)Cc1c[nH]cn1)[C@@H](C)O)[C@@H](C)O)C(=O)N[C@@H](CC(=O)O)C(=O)N[C@@H](CCC(=O)O)C(=O)N[C@@H](CCCNC(=N)N)C(=O)N[C@@H](C)C(=O)N[C@@H](C)C(=O)N[C@@H](CCC(N)=O)C(=O)N[C@@H](CC(=O)O)C(=O)N[C@@H](Cc1ccccc1)C(=O)N[C@H](C(=O)N[C@@H](CCC(N)=O)C(=O)N[C@@H](Cc1c[nH]c2ccccc12)C(=O)N[C@@H](CC(C)C)C(=O)N[C@@H](CCS(C)(=O)=O)C(=O)N[C@@H](CC(=O)O)C(=O)N[C@H](C(N)=O)[C@@H](C)O)C(C)C` [compound 24] (H-H[dS]QGTFTSDYS[Phe(4-CH2NH2)]([AEEA-AEEA-γGlu-C16 diacid])YLDERAAQDFVQWL[Met(O2)]DT-NH2; N-terminus assumed) came in with an EC50 in data set [5] of 0.37 nM. In addition, in data set [6], the concentration giving a half-maximal response (EC50) was 0.78 nM and the “hGCGR/hGLP1R (hTone)” value was 4.76.

For `CC(C)C[C@H](NC(=O)[C@H](Cc1ccc(O)cc1)NC(=O)[C@H](CCCCN)NC(=O)[C@H](CO)NC(=O)[C@H](Cc1ccc(O)cc1)NC(=O)[C@H](CC(=O)O)NC(=O)[C@H](CO)NC(=O)[C@@H](NC(=O)[C@H](Cc1ccccc1)NC(=O)[C@@H](NC(=O)CNC(=O)[C@H](CCC(N)=O)NC(=O)C(C)(C)NC(=O)[C@@H](N)Cc1c[nH]cn1)[C@@H](C)O)[C@@H](C)O)C(=O)N[C@@H](CC(=O)O)C(=O)N[C@@H](C)C(=O)N[C@@H](CCCNC(=N)N)C(=O)N[C@@H](C)C(=O)N[C@@H](C)C(=O)N[C@@H](CCCCNC(=O)COCCOCCNC(=O)COCCOCCNC(=O)CC[C@H](NC(=O)CCCCCCCCCCCCC(=O)O)C(=O)O)C(=O)N[C@@H](CC(=O)O)C(=O)N[C@@H](Cc1ccccc1)C(=O)N[C@H](C(=O)N[C@@H](CCC(N)=O)C(=O)N[C@@H](Cc1c[nH]c2ccccc12)C(=O)N[C@@H](CC(C)C)C(=O)N[C@@H](CCS(C)(=O)=O)C(=O)N[C@@H](CC(=O)O)C(=O)N[C@H](C(N)=O)[C@@H](C)O)C(C)C` [compound 49] (H-H[Aib]QGTFTSDYSKYLDARAAK([AEEA-AEEA-γGlu-C14 diacid])DFVQWL[Met(O2)]DT-NH2), the concentration giving a half-maximal response (EC50) in data set [5] was determined as 0.02 nM; in data set [6], 0.04 nM. Besides, the “hGCGR/hGLP1R (hTone)” value in data set [6] was 1.91.
